Converted amounts (≈) assume the structure as drawn.
Columns and labels:
Format in all cases: functional
[1] = test system: Acinetobacter pittii; test: Antimicrobial activity against Acinetobacter genospecies 3 isolate Ac057 expressing beta-lactamase Oxa-58 by broth microdilution method
[2] = test system: Acinetobacter baumannii; test: Antimicrobial activity against Acinetobacter baumannii isolate Ac058 expressing beta-lactamase Oxa-58 by broth microdilution method
[3] = test system: Acinetobacter baumannii; test: Antimicrobial activity against Acinetobacter baumannii isolate Ac058 expressing beta-lactamase Oxa-58 by broth microdilution method in presence of beta-lactamase inhibitor Sulbactam

Compound	MIC [1] [µg/mL]	MIC [2] [µg/mL]	MIC [3] [µg/mL]
NCC[C@H](O)C(=O)N[C@@H]1C[C@H](N)[C@@H](O[C@H]2O[C@H](CN)[C@@H](O)[C@H](O)[C@H]2O)[C@H](O)[C@H]1O[C@H]1O[C@H](CO)[C@@H](O)[C@H](N)[C@H]1O [AMIKACIN]	0.5 (≈ 0.854 µM)	256 (≈ 437 µM)	–
CC1(C)S[C@@H]2[C@H](NC(=O)[C@H](N)c3ccccc3)C(=O)N2[C@H]1C(=O)O [AMPICILLIN]	256 (≈ 733 µM)	256 (≈ 733 µM)	64
CC[C@H]1OC(=O)[C@H](C)[C@@H](O[C@H]2C[C@@](C)(OC)[C@@H](O)[C@H](C)O2)[C@H](C)[C@@H](O[C@@H]2O[C@H](C)C[C@H](N(C)C)[C@H]2O)[C@](C)(O)C[C@@H](C)CN(C)[C@H](C)[C@@H](O)[C@]1(C)O [AZITHROMYCIN]	4 (≈ 5.34 µM)	128 (≈ 171 µM)	–
CO/N=C(\C(=O)N[C@@H]1C(=O)N2C(C(=O)[O-])=C(C[N+]3(C)CCCC3)CS[C@H]12)c1csc(N)n1 [CEFEPIME]	8 (≈ 16.6 µM)	64 (≈ 133 µM)	–
CO[C@@]1(NC(=O)Cc2cccs2)C(=O)N2C(C(=O)O)=C(COC(N)=O)CS[C@@H]21 [CEFOXITIN]	256 (≈ 599 µM)	256 (≈ 599 µM)	–
CC(C)(O/N=C(\C(=O)N[C@@H]1C(=O)N2C(C(=O)[O-])=C(C[n+]3ccccc3)CS[C@H]12)c1csc(N)n1)C(=O)O [CEFTAZIDIME]	8 (≈ 14.6 µM)	256 (≈ 468 µM)	–
CC(=O)OCC1=C(C(=O)O)N2C(=O)[C@@H](NC(=O)Cc3cccs3)[C@H]2SC1 [CEPHALOTHIN]	256 (≈ 646 µM)	256 (≈ 646 µM)	–
O=C(O)c1cn(C2CC2)c2cc(N3CCNCC3)c(F)cc2c1=O [CIPROFLOXACIN]	32 (≈ 96.6 µM)	–	–
C[C@H]1c2cccc(O)c2C(=O)C2=C(O)[C@]3(O)C(=O)C(C(N)=O)=C(O)[C@@H](N(C)C)[C@@H]3[C@@H](O)[C@@H]21.O [DOXYCYCLINE]	< 0.5	16	–
C[C@@H](O)[C@H]1C(=O)N2C(C(=O)O)=C(SCCNC=N)C[C@H]12 [IMIPENEM ANHYDROUS]	> 32	> 32	–
C[C@@H](O)[C@H]1C(=O)N2C(C(=O)O)=C(S[C@@H]3CN[C@H](C(=O)N(C)C)C3)[C@H](C)[C@H]12 [MEROPENEM]	8 (≈ 20.9 µM)	8 (≈ 20.9 µM)	–
CCN1CCN(C(=O)N[C@@H](C(=O)N[C@@H]2C(=O)N3[C@@H]2SC(C)(C)[C@@H]3C(=O)O)c2ccccc2)C(=O)C1=O [PIPERACILLIN]	512 (≈ 989 µM)	512 (≈ 989 µM)	–
CO[C@H]1/C=C/O[C@@]2(C)Oc3c(C)c(O)c4c(O)c(c(/C=N/N5CCN(C)CC5)c(O)c4c3C2=O)NC(=O)/C(C)=C\C=C\[C@H](C)[C@H](O)[C@@H](C)[C@@H](O)[C@@H](C)[C@H](OC(C)=O)[C@@H]1C [RIFAMPIN]	2 (≈ 2.43 µM)	2 (≈ 2.43 µM)	–
NC[C@H]1O[C@H](O[C@H]2[C@H](O)[C@@H](O[C@H]3O[C@H](CO)[C@@H](O)[C@H](N)[C@H]3O)[C@H](N)C[C@@H]2N)[C@H](N)C[C@@H]1O [TOBRAMYCIN]	0.25 (≈ 0.535 µM)	64 (≈ 137 µM)	–
GENTAMICIN	< 1	16	–
POLYMYXIN B	2	1	–

From ChEMBL document CHEMBL1275464, “Characterization of the carbapenem-hydrolyzing oxacillinase oxa-58 in an Acinetobacter genospecies 3 clinical isolate” (2008)
